Measured values from PMC6099682, “(-)-Shikimic Acid as a Chiral Building Block for the Synthesis of New Cytotoxic 6-Aza-Analogues of Angucyclinones” (Molecules : A Journal of Synthetic Chemistry and Natural …, 2018).
Where two headings read alike, the source gives them in different places.

How the values were obtained:
[1] = system: lung carcinoma, MBA9812; set-up: method as in doi:10.1021/jo00007a009; details: cited from earlier work
[2] = system: Staphylococcus aureus; set-up: method as in PMID 26968676; details: cited from earlier work
[3] = system: MCF-7; set-up: method as in PMID 23136829; details: read-out: IC50, in vitro cytotoxicity toward MCF-7; cited from earlier work
[4] = system: SF-268; set-up: method as in PMID 23136829; details: read-out: IC50, in vitro cytotoxicity toward SF-268; cited from earlier work
[5] = system: HT-29 (colon cancer); experiment: Sulforhodamine B cytotoxicity assay, HT-29; format: cell-based; details: for IC50: 72 h continuous exposure, SRB assay, mean ± SD; for Selectivity index (SI), ratio of IC50 in CoN in cancer cells, HT-29: CCD841-CoN IC50 / HT-29 IC50
Protocol: (§1) To analyse the scope of the shikimic-fragment incorporated in the angucycline scaffold on the cytotoxic activity of these compounds, we included five previously obtained compounds (Figure 2, [32]). Therefore, the cytotoxicity of the new nine synthesised compounds, and of the five aforementioned compounds, was evaluated in vitro against different cancer cell lines: PC-3 (prostate cancer), HT-29 (colon cancer), MCF-7 (breast cancer), and one non-tumoral cell line, human colon epithelial cells (CCD841 CoN). A conventional colorimetric assay was set up to estimate the IC50 values, which represent the concentration of a drug that is required for 50% inhibition in vitro after 72 h of continuous exposure to the test compounds. Several serial dilutions (from 1.25 to 100 µM) for each sample were evaluated in triplicate.
(§2) The experimental cell lines were obtained from the American Type Culture Collection. HT-29 (colon cancer cell line), PC-3 (prostate cancer), MCF-7 (breast cancer), and CCD841 CoN (colon epithelial) were grown in DMEM-F12 containing 10% FCS, 100 U/mL penicillin, 100 µg/mL streptomycin, and 1 mM glutamine.
(§3) The in vitro cytotoxic activities of all the compounds were evaluated on cell lines previously mentioned by the sulforhodamine B assay, according to [42]. Briefly, cells were seeded at a plating density of 5 × 10^3 cells/well into 96 well plates. Cells were incubated at 37 °C for 24 h to allow cell attachment. The test compounds at indicated final concentrations were added to the culture medium and the cell cultures were continued for 72 h under the same conditions. Stock solutions of compounds were prepared in DMSO. Control cultures received 0.1% DMSO alone. At the end of the treatment, cells were fixed with trichloroacetic acid (50% w/v) at 4 °C and, subsequently, washed with water. Cells were stained with 0.1% sulforhodamine B in 1% acetic acid for 30 min. Posteriorly, the cells were washed acetic acid (1%) to remove unbound sulforhodamine B. Protein-bound stain was solubilized with 10 mM unbuffered Tris base). The optical density was determined using a […] plate reader (540 nm). The obtained values are transformed to percentages of viable cells versus control treatment and the IC50 values calculated for each compound in the cell lines were studied using the SigmaPlot 12.0 software (Systat Software, San Jose, CA, USA). Values shown are the mean ± SD of the three independent experiments in triplicate.

[6] = system: human colon epithelial cells (CCD841 CoN); experiment: Sulforhodamine B cytotoxicity assay, non-tumoral CCD841 CoN; format: cell-based; details: CCD-841CoN, 72 h continuous exposure, SRB assay, mean ± SD
Protocol: as §1, §2, §3

[7] = system: MCF-7 (breast cancer); experiment: Sulforhodamine B cytotoxicity assay, MCF-7; format: cell-based; details: for Selectivity index (SI), ratio of IC50 in CoN in cancer cells, MCF-7: CCD841-CoN IC50 / MCF-7 IC50; for IC50: Homo sapiens, MCF7, 72 h continuous exposure, SRB assay
Protocol: as §1, §2, §3

[8] = system: PC-3 (prostate cancer); experiment: Sulforhodamine B cytotoxicity assay, PC-3; format: cell-based; details: for IC50: 72 h continuous exposure, SRB assay, mean ± SD; for Selectivity index (SI), ratio of IC50 in CoN in cancer cells, PC-3: CCD841-CoN IC50 / PC-3 IC50
Protocol: as §1, §2, §3

[9] = mean ± SD, read-out: IC50 Values MCF-7

| Structure (SMILES) | melting point [°C] | activity against the lung carcinoma, MBA9812, in mice [1] | antibacterial activities against Staphylococcus aureus [2] | IC50 [3] [µM] | IC50 [4] [µM] | IC50 [5] [µM] | Selectivity index (SI), ratio of IC50 in CoN in cancer cells, HT-29 [5] | IC50 ([5]; Homo sapiens, HT-29, 72 h) [µM] | IC50 [6] [µM] | Selectivity index (SI), ratio of IC50 in CoN in cancer cells, MCF-7 [7] | IC50 [7, 9] [µM] | IC50 ([8]; 72 h) [µM] | IC50 [8] [µM] | Selectivity index (SI), ratio of IC50 in CoN in cancer cells, PC-3 [8] | IC50 ([7]; read-out: IC50 value MCF-7) [µM] |
| --- | --- | --- | --- | --- | --- | --- | --- | --- | --- | --- | --- | --- | --- | --- | --- |
| CN[C@H]1C[C@@H](Oc2cc(C)cc3cnc4c(c23)C(=O)c2cccc(O)c2C4=O)O[C@H](C)[C@H]1O [Compound 4a, phenanthroviridin] |  | active |  |  |  |  |  |  |  |  |  |  |  |  |  |
| Cc1cc(O)c2c3c(ncc2c1)C(=O)c1c(O)cccc1C3=O [Compound 4b, phenanthroviridone] |  | active | antibacterial activities | 0.17 | 0.09 |  |  |  |  |  |  |  |  |  |  |
| CN(C)N1C=C2C[C@@H](O[Si](C)(C)C(C)(C)C)[C@@H]3OC(C)(C)O[C@@H]3[C@H]2C2=C1C(=O)c1c(O)cccc1C2=O [Compound 7a] |  |  |  |  |  | 0.2 ± 0.05 | 11.5 | < 0.4 | 2.3 ± 0.3 | 0.1 | 16 ± 1 | < 1 | 0.7 ± 0.1 | 3.3 |  |
| CC(=O)Oc1cccc2c1C(=O)C1=C(C2=O)[C@H]2C(=CN1N(C)C)C[C@@H](O[Si](C)(C)C(C)(C)C)[C@@H]1OC(C)(C)O[C@H]21 [Compound 7b] |  |  |  |  |  |  | 0.4 | 2.1 ± 1.2 | 0.8 ± 0.1 | 0.1 | 12.1 ± 4 | 2.4 ± 0.9 |  | 0.3 |  |
| CC1(C)O[C@@H]2[C@@H]3C(=CNC4=C3C(=O)c3ccccc3C4=O)C[C@@H](O[Si](C)(C)C(C)(C)C)[C@@H]2O1 [Compound 8] |  |  |  |  |  |  | 1.8 | 7.8 ± 0.9 | 13.8 ± 1 | 3.3 | 4.2 ± 4.2 | 5.7 ± 1.3 |  | 2.4 |  |
| CC1(C)O[C@@H]2[C@H](O1)c1c(cnc3c1C(=O)c1ccccc1C3=O)C[C@H]2O[Si](C)(C)C(C)(C)C [Compound 9a] |  |  |  |  |  |  | 0.8 | 3.7 ± 0.8 | 2.8 ± 0.4 | 0.2 | 17.8 ± 3 | 7.6 ± 1.2 |  | 0.4 |  |
| CC1(C)O[C@@H]2[C@H](O1)c1c(cnc3c1C(=O)c1c(O)ccc(O)c1C3=O)C[C@H]2O[Si](C)(C)C(C)(C)C [Compound 9b] |  |  |  |  |  |  | 1.1 | 15 ± 4.2 | 15.6 ± 2.1 | 0.6 | 28.3 ± 4 | 13.1 ± 2 |  | 1.2 |  |
| CO[C@@H]1[C@@H]2C(=CN(N(C)C)C3=C2C(=O)c2ccccc2C3=O)C[C@@H](OC)[C@@H]1OC [Compound 15, (1R,2S,3R,12bR)-6-(Dimethylamino)-1,2,3-trimethoxy-1,2,3,4,6,12b-hexahydrobenzo[b]phenanthridine-7,12-dione] | 128.5 |  |  |  |  |  | 2.8 | 29.2 ± 6.8 | 81.6 ± 15.8 | 1.0 | 78.1 ± 6.9 | 34.8 ± 0.3 |  | 2.3 |  |
| CO[C@@H]1[C@H](OC)c2c(cnc3c2C(=O)c2ccccc2C3=O)C[C@H]1OC [Compound 17, (1R,2S,3R)-1,2,3-Trimethoxy-1,2,3,4-tetrahydrobenzo[b]phenanthridine-7,12-dione] | 184.8 |  |  |  |  | 3.3 ± 0.9 | 3.6 | ~3 | 11.8 ± 1.3 | 1.0 | 11.9 ± 1.5 | 3.9 ± 0.6 |  | 3.0 |  |
| COc1cccc2cnc3c(c12)C(=O)c1ccccc1C3=O [Compound 20, 1-Methoxybenzo[b]phenanthridine-7,12-dione] |  |  |  |  |  | 3.7 ± 1.2 | 6.4 | ~3 | 23.6 ± 3.4 | 1.7 | 14 ± 1.7 | 7.8 ± 1 |  | 3.0 |  |

Further lines, with some results ahead:

| melting point [°C] | Structure (SMILES) | activity against the lung carcinoma, MBA9812, in mice [1] | antibacterial activities against Staphylococcus aureus [2] | IC50 [3] [µM] | IC50 [4] [µM] | IC50 [5] [µM] | Selectivity index (SI), ratio of IC50 in CoN in cancer cells, HT-29 [5] | IC50 ([5]; Homo sapiens, HT-29, 72 h) [µM] | IC50 [6] [µM] | Selectivity index (SI), ratio of IC50 in CoN in cancer cells, MCF-7 [7] | IC50 [7, 9] [µM] | IC50 ([8]; 72 h) [µM] | IC50 [8] [µM] | Selectivity index (SI), ratio of IC50 in CoN in cancer cells, PC-3 [8] | IC50 ([7]; read-out: IC50 value MCF-7) [µM] |
| --- | --- | --- | --- | --- | --- | --- | --- | --- | --- | --- | --- | --- | --- | --- | --- |
| 161.5 | CO[C@@H]1[C@@H]2C(=CNC3=C2C(=O)c2ccccc2C3=O)C[C@@H](OC)[C@@H]1OC [Compound 16a, (1R,2S,3R,12bR)-1,2,3-Trimethoxy-1,2,3,4,6,12b-hexahydrobenzo[b]phenanthridine-7,12-dione] |  |  |  |  |  | 2.7 | 42.9 ± 8.4 | 116 ± 17.8 | 1.0 | 118 ± 10.8 | 23.6 ± 3.7 |  | 4.9 |  |
| 177.3 | CO[C@@H]1[C@@H]2C(=CNC3=C2C(=O)c2cccc(O)c2C3=O)C[C@@H](OC)[C@@H]1OC [Compound 16b, (1R,2S,3R,12bR)-8-Hydroxy-1,2,3-trimethoxy-1,2,3,4,6,12b-hexahydrobenzo[b]phenanthridine-7,12-dione] |  |  |  |  |  | 2.9 | 5.3 ± 0.8 | 15.5 ± 3.1 | 1.3 | 11.5 ± 3.1 | 6.6 ± 1.1 |  | 2.3 |  |
| 139 | CO[C@@H]1[C@@H]2C(=CNC3=C2C(=O)c2c(O)ccc(O)c2C3=O)C[C@@H](OC)[C@@H]1OC [Compound 16c, (1R,2S,3R,12bR)-8,11-Dihydroxy-1,2,3-trimethoxy-1,2,3,4,6,12b-hexahydrobenzo[b]phenanthridine-7,12-dione] |  |  |  |  |  | 2.2 | 4 ± 0.3 | 8.8 ± 1.3 | 0.7 | 13.5 ± 0.9 | 6.4 ± 0.8 |  | 1.4 |  |
| 78.8 | CO[C@H]1C=Cc2cnc3c(c2[C@@H]1OC)C(=O)c1cccnc1C3=O [Compound 19a, (1S,2S)-1,2-Dimethoxy-1,2-dihydropyrido[3,2-b]phenanthridine-7,12-dione] |  |  |  |  |  |  |  | 0.04 ± 0.01 | 4.0 | 0.01 ± 0.005 |  |  | 0.5 | ~0.01 |
| 161.2 | CO[C@H]1C=Cc2cnc3c(c2[C@@H]1OC)C(=O)c1ccc(C)nc1C3=O [Compound 19b, (1S,2S)-1,2-Dimethoxy-9-methyl-1,2-dihydropyrido[3,2-b]phenanthridine-7,12-dione] |  |  |  |  | 0.39 ± 0.04 |  | < 0.4 | 0.3 ± 0.02 | 1.6 | 0.19 ± 0.04 |  |  | 0.7 |  |
| 117.5 | CO[C@H]1C=Cc2cnc3c(c2[C@@H]1OC)C(=O)c1ccccc1C3=O [Compound 19c, (1S,2S)-1,2-Dimethoxy-1,2-dihydrobenzo[b]phenanthridine-7,12-dione] |  |  |  |  |  | 0.8 | 21 ± 3.6 | 17.4 ± 2 | 1.4 | 12.8 ± 1.4 | 4 ± 0.4 |  | 4.4 |  |
